Literature values as cited in patent US20080019975A1, “Novel Regimens for Treating Diseases and Disorders” (BioAssets Development Corporation, priority 2006, published 2008).

Test system: sciatica patients
Settings: IV administration, blinded trial versus placebo saline infusion

infliximab
difference between patients treated with the drug versus placebo saline infusion: failed to show a difference
